Here are results for three molecules from patent US20220133747A1, “ESTROGEN RECEPTOR INHIBITORS AND USES THEROF” (The Regents of the University of California, priority 2018, published 2022).

Each structure is given as a SMILES string.

Assay [1] has as its system ER-dependent transcription. The assay can be described thus: ERE-luciferase T47D reporter, ER-dependent transcriptional activity. The class given is cell-based, human. The conditions noted are these: E2 alone, 2 nM. The protocol: (§1) FIGS. 20A-20C show biologic activity of selected SERD candidates. […] ER-positive MCF-7 cells were treated in phenol-red free RPMI 1640 without FBS and containing vehicle control (CON) or 100 nM concentrations of either fulvestrant (FX) or antiestrogens 105, 109, 121, 140, 151, 160 or SERD128 in vitro. After 4 hours, cells were harvested and processed for PAGE and Western immunoblots using ERα antibody (1D5, Thermofisher Scientific). RPL13A was used as a loading control. […] Cells were dosed with either E2 alone or with SERDs combined with E2 in phenol redfree medium with 0.1% dextran-coated charcoal-treated FBS in luminometer plates. Data are presented as relative light units (RLU) relative to that of E2 alone in three replicate assays (4 wells per replicate) f SEM. Treatment with E2 alone induced a 12-fold induction of ER-dependent luciferase activity quantified as RLU relative to vehicle control-treated samples.
A stable ER-positive T47D ERE luciferase reporter cell line, in which the ERE and the reporter luciferase gene are consistently expressed in the cell line were used in this study (Signosis). […] Lysate was mixed 1:1 with luciferase substrate (Promega), and luminescence was measured using a MLX microtiter plate luminometer (Dynex) and quantified as relative light units (RLU) according to established procedures. Total protein was quantified using BioRad Protein Assay (BioRad).

The target in another assay is T1, ERα (Homo sapiens, UniProt P03372).
T1 construct: endogenous in cells; host or cells: MCF-7 human breast cancer cells (ATCC)
T1 sequence (P03372 1-595): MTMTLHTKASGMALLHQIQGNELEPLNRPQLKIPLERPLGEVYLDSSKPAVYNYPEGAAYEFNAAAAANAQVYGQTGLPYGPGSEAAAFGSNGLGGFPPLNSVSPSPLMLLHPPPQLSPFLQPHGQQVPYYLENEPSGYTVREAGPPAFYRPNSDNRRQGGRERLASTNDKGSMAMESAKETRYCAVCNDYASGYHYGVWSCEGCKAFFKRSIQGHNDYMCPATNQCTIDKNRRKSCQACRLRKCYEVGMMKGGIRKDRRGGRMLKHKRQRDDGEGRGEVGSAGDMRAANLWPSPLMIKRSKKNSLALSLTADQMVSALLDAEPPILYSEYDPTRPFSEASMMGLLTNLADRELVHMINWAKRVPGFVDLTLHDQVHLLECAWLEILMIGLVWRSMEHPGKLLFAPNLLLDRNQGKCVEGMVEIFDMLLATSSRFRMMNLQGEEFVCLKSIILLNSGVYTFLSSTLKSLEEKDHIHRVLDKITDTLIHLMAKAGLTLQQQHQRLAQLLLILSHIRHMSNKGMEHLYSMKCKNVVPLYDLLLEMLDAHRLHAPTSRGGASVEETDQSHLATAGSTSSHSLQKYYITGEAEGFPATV
The experiment in a line: Downregulation of ER protein, PAGE and Western immunoblot in MCF-7 cells. The class given is cell-based. The settings on record: 100 nM, 4 hours, phenol-red free medium without FBS. The protocol:
as §1
MCF7 cells were plated in regular medium. After 24 hrs, cells were incubated in the presence of antiestrogens or fulvestrant for 4 hrs in phenol-red free medium without FBS. Cell lysates were prepared using RIPA buffer, and protein concentration was determined using the BCA Protein Assay Kit (PIERCE/ThermoFisher Scientific). Forty micrograms of total cell protein was resolved by 4-15% SDS-PAGE, transferred to a PVDF membrane and probed with antibody directed against ERα (1D5, 1:100, ThermoFisher cat #MA5-13191). RPL13A (dilution 1:1000, Invitrogen/ThermoFisher cat #PA5-58528) was used as loading control.
(In general: A western blot detects proteins with antibodies after separation by electrophoresis.)

Another assay has as its system ER+ early breast cancer. The settings on record: cited from earlier work.

`C[C@]12CC[C@@H]3c4ccc(O)cc4CC[C@H]3[C@@H]1CC[C@@H]2O` [E2, estradiol-17β, reference compound]: the “induction of ER-dependent luciferase activity (RLU relative to vehicle control)” value in assay [1] is reported as 12 fold. In the case of `C[C@]12C[C@H](Oc3ccc(NC(=O)CCCCN4CCCCC4)c(F)c3)[C@@H]3c4ccc(O)cc4CC[C@H]3[C@@H]1CC[C@@H]2O` [SERD140, N-(4-(((8S,9S,11S,13S,14S,17S)-3,17-Dihydroxy-13-methyl-7,8,9,11,12,13,14,15,16,17-deca-hydro-6H-cyclopenta[a]phenanthren-11-yl)oxy)-2-fluorophenyl)-5-(piperidin-1-yl)pentan-amide], the “downregulation of ER protein (ERα protein levels)” value at ERα was “most effective in reducing ER protein levels”. In the case of `CC/C(=C(\c1ccccc1)c1ccc(OCCN(C)C)cc1)c1ccccc1` [Tamoxifen], in the assay on ER+ early breast cancer, the “reduction in disease recurrence” value was 39% and the reduction in mortality is on record as 31%.
